“Also recorded” adds a separate entry of the source.
What was measured:
[1] = system: normal heart; assay: In vivo phage homing to normal heart (phage per gram heart / phage per gram brain); design: species or system mice; conditions: for Enrichment (relative enrichment compared with insertless phage): Targeted tissue Normal Heart, n=6 or 7 animals; for Enrichment (relative enrichment compared with insertless phage) / Homing to normal heart (in words): individual phage; for Enrichment in normal heart as compared to brain: normal heart versus control brain tissue, phage expressing the peptide; for Homing to normal heart (in words): normal animals
Procedure: Individual phage (5×10^9 TU) were injected intravenously and allowed to circulate for 5 minutes prior to perfusion of the vasculature and harvesting of the heart and brain. The number of phage recovered from the heart (per gram) was normalized by the number of phage recovered from the brain (per gram). Fd-tet was a phage without any additional peptide insert. […] The data shown are the logarithmic means and logarithmic standard errors of the multiple experiments.
In vivo panning was performed to identify phage that selectively home to normal coronary endothelium by injection of phage libraries and isolation of individual phage from the heart as follows. […] Both linear (X7 (SEQ ID NO: 1)) and cyclic (CX7C (SEQ ID NO: 13), CX9C (SEQ ID NO: 14), and CX11C (SEQ ID NO: 15)) libraries were used, where “C” indicates cysteine and “XN” indicates the given number of individually selected amino acids.
Libraries were administered independently with the initial titer of the various libraries. In vivo phage selection was performed as described in Pasqualini and Ruoslahti, Nature 380:364–366 (1996), with a few modifications. In both normal and ischemic targeting, 2.5×10^8 transducing units of the initial phage libraries were injected intravenously into the jugular vein. After 5 minutes of phage circulation in vivo, the heart was arrested by intraventricular injection of a hyperkalemic (30 mM KCl), hypothermic solution of DMEM, and the vasculature cleared of blood by perfusion with 5–10 ml of hyperkalemic DMEM through a left ventricular cannula. After the heart and brain were harvested, homogenized and weighed, phage were rescued by infection with K91 Kan bacteria. For the second and third rounds of selection, 200 normal or 100 ischemic clones were picked from the previous round and individually grown to saturation. Cultures were then pooled, phage particles purified and 10^10 TU of a pool reinjected into similarly treated mice.
(§1) All data were calculated as the ratio of the number of phage obtained per gram of heart tissue to the number of phage obtained per gram of brain tissue. Means, standard deviations, standard errors and parametric statistics were based on the assumption that this ratio is derived from a log-normal distribution.

[2] = system: ischemic/reperfused myocardium; assay: In vivo phage homing to ischemia-reperfusion injured heart (phage per gram heart / phage per gram brain); design: species or system mice; conditions: for Enrichment (relative enrichment compared with insertless phage): Targeted tissue Ischemic Heart; for Enrichment (relative enrichment compared with insertless phage) / Homing to ischemic/reperfused myocardium (in words): individual phage; for Homing to ischemic/reperfused myocardium (in words): ischemia-reperfusion injured animals
Procedure: Individual phage obtained from screening in ischemic-reperfused hearts were injected at 5×10^9 TU intravenously into normal animals (open squares) or animals subject to 30 minutes myocardial ischemia by occlusion of the left anterior descending (LAD) coronary artery followed by 30 minutes reperfusion (closed circles). Phage were allowed to circulate for 5 minutes prior to perfusion of the vasculature and harvesting of the heart and brain. The number of phage recovered from the heart (per gram) was normalized by the number of phage recovered from the brain (per gram). […] The data shown are-the logarithmic means and logarithmic standard errors of the multiple experiments.
The number of phage recovered from the heart (per gram) was normalized by the number of phage recovered from the brain (per gram). The data shown are the logarithmic means and logarithmic standard errors for six to seven individual experiments.
as §1
Ischemia-reperfusion was performed as follows using large male CD-1 mice weighing about 40 grams to facilitate the surgical protocol. Briefly, mice were anesthetized by an intramuscular injection of a mixture of xylazine (50 mg/kg) and ketamine (50 mg/kg) and subsequently intubated with an endotracheal tube and ventilated with a mixture of oxygen and room air using a Harvard Apparatus (0.05 ml; 100 bpm). The heart was exposed with a left thoracotomy, and a 7-0 suture was placed under the left anterior descending (LAD) coronary artery; the vessel was occluded by tying a knot over a small piece of polyethylene tubing (PE50). Ischemia was confirmed by cyanosis of the myocardium. After 30 minutes of occlusion, the knot was cut and blood flow restored to the region. Reperfusion was allowed to proceed for 30 minutes before phage targeting to allow for some vascular changes while limiting neutrophil recruitment to the area.

[3] = system: ischemic left ventricle; assay: Phage recovered from injured left ventricle versus right ventricle and septum, ischemic hearts; assay type: in vivo, mice; conditions: animals after myocardial ischemia-reperfusion
Procedure: The number of phage recovered from the left ventricle (g^−1) was normalized by the number of phage recovered from the right ventricle and septum (g^−1). The overall data shown are a logarithmic mean and logarithmic standard deviation for 47 normal and 35 ischemic hearts. The data for phage bearing SEQ ID NO: 10 (R13) are for six individual animals each.
Ischemia-reperfusion was performed as follows using large male CD-1 mice weighing about 40 grams to facilitate the surgical protocol. Briefly, mice were anesthetized by an intramuscular injection of a mixture of xylazine (50 mg/kg) and ketamine (50 mg/kg) and subsequently intubated with an endotracheal tube and ventilated with a mixture of oxygen and room air using a Harvard Apparatus (0.05 ml; 100 bpm). The heart was exposed with a left thoracotomy, and a 7-0 suture was placed under the left anterior descending (LAD) coronary artery; the vessel was occluded by tying a knot over a small piece of polyethylene tubing (PE50). Ischemia was confirmed by cyanosis of the myocardium. […]
As a further test of specificity for homing to ischemic heart, phage homing to the injured left ventricle was compared to homing to the normal right ventricle and septum. […] When the ratio of phage accumulation in the left ventricle only is calculated relative to accumulation in the brain, the preferential accumulation of […] […]

Row | Substance | Enrichment (relative enrichment compared with insertless phage) [1] | Enrichment in normal heart as compared to brain [1] | Enrichment (relative enrichment compared with insertless phage) [2] | Homing to normal heart (in words) [1] | Homing to ischemic/reperfused myocardium (in words) [2] | other results
1 | CLHRGNSC (phage displayed) [SEQ ID NO: 9] | ~2 fold | at least two-fold | ~2 fold | – | – | Enrichment (relative enrichment compared with insertless phage) ([1]; listed as 9): 2-fold
2 | CRSWNKADNRSC (phage displayed) [SEQ ID NO: 10] | – | – | 5 fold | did not target the normal heart | – | Enrichment (relative enrichment compared with insertless phage) ([2]; listed as 10): 5-fold; Phage accumulation in the left ventricle only relative to accumulation in the brain ([2]; ischemia-reperfusion injured hearts, left ventricle only): 7 fold; Preferential homing to the ischemic left ventricle versus right ventricle (in words) [3]: more phage were recovered from the injured left ventricle than the right ventricle; also recorded: preferentially homed to the ischemic left ventricle as compared to the uninjured right ventricle
3 | GGGVFWQ (phage displayed) [SEQ ID NO: 2] | ~5 fold | – | – | binds to normal heart; also recorded: strongly targeted the normal myocardium | remained enriched | Enrichment (relative enrichment compared with insertless phage) ([1]; listed as 2): 5-fold
4 | HGRVRPH (phage displayed) [SEQ ID NO: 3] | ~2 fold | at least two-fold | – | – | – | Enrichment (relative enrichment compared with insertless phage) ([1]; listed as 3): 2-fold
5 | RPGRLNG (phage displayed) [SEQ ID NO: 8] | – | – | – | did not home to normal heart; also recorded: clearly did not target the normal myocardium | did not change | –
6 | VVLVTSS (phage displayed) [SEQ ID NO: 4] | ~2 fold | at least two-fold | – | – | – | Enrichment (relative enrichment compared with insertless phage) ([1]; listed as 4): 2-fold

Reference: patent US7144860B2, “Heart homing conjugates” (priority 1999, dated 2006)
